In publication PMC6994307 (Current Therapeutic Research, Clinical and Experimental, 2019):
Entries after “also recorded” stand apart in the source; their conditions may differ. Like-named read-outs stand apart in the source and are kept apart here.

Columns and labels:
CB1 [1] = settings: CP55,940 as the tracer; cited from earlier work
human CB1 receptor [2] = molecular target: T1, human CB1 receptor (Homo sapiens, UniProt P21554); assay type: binding; settings: for Effect on binding of agonist CP55,940 (in words): [3H]CP55,940 tracer, modulator 1 nM–10 µM
T1 sequence (P21554 whole entry): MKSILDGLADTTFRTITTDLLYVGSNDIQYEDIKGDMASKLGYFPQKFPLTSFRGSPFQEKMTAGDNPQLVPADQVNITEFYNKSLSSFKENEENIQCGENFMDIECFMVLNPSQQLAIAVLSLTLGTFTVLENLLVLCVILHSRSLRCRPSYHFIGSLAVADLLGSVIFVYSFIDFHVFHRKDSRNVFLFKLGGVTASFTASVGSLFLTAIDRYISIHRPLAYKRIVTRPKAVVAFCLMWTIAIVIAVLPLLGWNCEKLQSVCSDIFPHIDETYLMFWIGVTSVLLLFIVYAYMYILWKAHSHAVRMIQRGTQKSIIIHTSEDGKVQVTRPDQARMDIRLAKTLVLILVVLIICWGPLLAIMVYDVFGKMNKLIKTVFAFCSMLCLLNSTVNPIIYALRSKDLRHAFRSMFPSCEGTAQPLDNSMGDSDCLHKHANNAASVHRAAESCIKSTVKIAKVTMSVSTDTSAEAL

[3] = Computational prediction of physicochemical properties and solubility
human CB1 receptor [4] = molecular target: T1, human CB1 receptor; assay type: binding; settings: for cooperativity factor: [3H]SR141716A (1 nM) as orthosteric inverse agonist; for Effect on SR141716A binding (in words): [3H]SR141716A tracer, modulator 1 nM–10 µM
CB1 [5] = settings: cited from earlier work
rats = settings: cited from earlier work
CB1 [6] = settings: cited from earlier work; remark: listed apart in the source
CB1 [7] = settings: cited from earlier work; remark: listed apart in the source
[8] = read-out: KB (equilibrium dissociation), [3H]CP55,940 (0.5 nM) as orthosteric ligand, 95% CI in parentheses, NB = no detectable binding with test compound up to 10 µM
[9] = on introducing ethanolamine into LDK1321 (6a) and LDK1324 (6b)

Compound | Kb (human CB1 receptor [2]) | Effect on binding of agonist CP55,940 (in words) (human CB1 receptor [2]) | Kb (human CB1 receptor [2]; [8]) | cooperativity factor (human CB1 receptor [4]) | Effect on SR141716A binding (in words) (human CB1 receptor [4]) | also measured
N#Cc1ccc(NC(=O)Nc2cccc(-c3cccc(N4CCCC4)n3)c2)cc1 |  |  |  |  |  | EC50 (CB1 [1]): 0.055 µM
CC(=O)Nc1cccc(NC(=O)Nc2ccc(C#N)cc2)c1 [LDK1317, N-(3-(3-(4-Cyanophenyl)ureido)phenyl)acetamide] | 0.11 µM | enhanced the binding of agonist CP55,940 to some degree |  |  |  | 
N#Cc1ccc(NC(=O)Nc2ccc3[nH]ccc3c2)cc1 [LDK1318, 1-(4-Cyanophenyl)-3-(1H-indol-5-yl)urea] |  | no binding | > 10 µM |  |  | 
N#Cc1ccc(NC(=O)Nc2ccc3cc[nH]c3c2)cc1 [LDK1319, 1-(4-Cyanophenyl)-3-(1H-indol-6-yl)urea] |  | no binding | > 10 µM |  |  | 
CN(C)c1ccc(NC(=O)Nc2ccc(C#N)cc2)cc1 [LDK1320, 1-(4-Cyanophenyl)-3-(4-(dimethylamino)phenyl)urea] | 0.83 µM |  |  |  |  | Enhancement of calculated intrinsic solubility ([3]; vs PSNCBAM-1, on reducing the number of rings to 2): about 400 fold; Effect on binding of agonist CP55,940 (in words) (human CB1 receptor [2]; listed as LDK1320 (12b)): enhanced the binding of agonist CP55,940 to some degree
N#Cc1ccc(NC(=O)Nc2cccc(-c3ccnc(Cl)n3)c2)cc1 [LDK1321, 1-(3-(2-Chloropyrimidin-4-yl)phenyl)-3-(4-cyanophenyl)urea] | 0.085 µM |  |  | < 1 | robust, dose-dependent decrease | Effect on binding of agonist CP55,940 (in words) (human CB1 receptor [2]; listed as LDK1321 (6a)): enhanced the binding of agonist CP55,940 to some degree; also recorded: successful in enhancing the binding of agonist CP55,940
N#Cc1ccc(NC(=O)Nc2cccc(-c3ccnc(NCCO)n3)c2)cc1 [LDK1323, 1-(4-Cyanophenyl)-3-(3-(2-((2-hydroxyethyl)amino)pyrimidin-4-yl)phenyl)urea] | 0.2 µM |  |  | < 1 | modest decrease | Enhancement of calculated intrinsic solubility [3, 9]: approximately 20 fold; Effect on binding of agonist CP55,940 (in words) (human CB1 receptor [2]; listed as LDK1323 (8a)): enhanced the binding of agonist CP55,940 to some degree; also recorded: modest, but positive influence
N#Cc1ccc(NC(=O)Nc2cccc(-c3cccc(Cl)n3)c2)cc1 [LDK1324, 1-(3-(6-Chloropyridin-2-yl)phenyl)-3-(4-cyanophenyl)urea] | 0.3 µM |  |  | < 1 | robust, dose-dependent decrease | Effect on binding of agonist CP55,940 (in words) (human CB1 receptor [2]; listed as LDK1324 (6b)): enhanced the binding of agonist CP55,940 to some degree
N#Cc1ccc(NC(=O)Nc2cccc(-c3cccc(NCCO)n3)c2)cc1 [LDK1325, 1-(4-Cyanophenyl)-3-(3-(6-((2-hydroxyethyl)amino)pyridin-2-yl)phenyl)urea] |  |  | > 10 µM |  |  | Enhancement of calculated intrinsic solubility [3, 9]: approximately 20 fold; Effect on binding of agonist CP55,940 (in words) (human CB1 receptor [2]; listed as LDK1325 (8b)): no binding; also recorded: lost its binding affinity
O=C(Nc1ccc(Cl)cc1)Nc1cccc(-c2cccc(N3CCCC3)n2)c1 [PSNCBAM-1, 1-(4-Chlorophenyl)-3-{3-[6-(pyrrolidin-1-yl)pyridin-2-yl]phenyl} urea] |  |  |  |  |  | Effect in cAMP assay (CB1 [5]): noncompetitive, inhibitory effects; Food intake and body weight (rats): reduced food intake and body weight; Effect in GTPγS assay (CB1 [6]): noncompetitive, inhibitory effects; Effect on binding of the CB1 agonist CP55,940 (CB1 [7]): enhanced binding; Effect on binding of the inverse agonist SR141716A (CB1 [7]): reducing the binding
